Measurements reported in patent US20260159485A1, “ANDROGEN RECEPTOR DEGRADERS FOR THE TREATMENT OF CASTRATION-RESISTANT PROSTATE CANCER AND USE THEREOF” (AUTOTAC INC., priority 2021, published 2026).

Columns and labels:
[1] = target: T1, androgen receptor (Homo sapiens, UniProt P10275); assay: Degradation of androgen receptor through autophagy; format: cell-based; settings: FIG. 2a to 2c
T1 construct: endogenous in cells
T1 sequence (P10275 1-920): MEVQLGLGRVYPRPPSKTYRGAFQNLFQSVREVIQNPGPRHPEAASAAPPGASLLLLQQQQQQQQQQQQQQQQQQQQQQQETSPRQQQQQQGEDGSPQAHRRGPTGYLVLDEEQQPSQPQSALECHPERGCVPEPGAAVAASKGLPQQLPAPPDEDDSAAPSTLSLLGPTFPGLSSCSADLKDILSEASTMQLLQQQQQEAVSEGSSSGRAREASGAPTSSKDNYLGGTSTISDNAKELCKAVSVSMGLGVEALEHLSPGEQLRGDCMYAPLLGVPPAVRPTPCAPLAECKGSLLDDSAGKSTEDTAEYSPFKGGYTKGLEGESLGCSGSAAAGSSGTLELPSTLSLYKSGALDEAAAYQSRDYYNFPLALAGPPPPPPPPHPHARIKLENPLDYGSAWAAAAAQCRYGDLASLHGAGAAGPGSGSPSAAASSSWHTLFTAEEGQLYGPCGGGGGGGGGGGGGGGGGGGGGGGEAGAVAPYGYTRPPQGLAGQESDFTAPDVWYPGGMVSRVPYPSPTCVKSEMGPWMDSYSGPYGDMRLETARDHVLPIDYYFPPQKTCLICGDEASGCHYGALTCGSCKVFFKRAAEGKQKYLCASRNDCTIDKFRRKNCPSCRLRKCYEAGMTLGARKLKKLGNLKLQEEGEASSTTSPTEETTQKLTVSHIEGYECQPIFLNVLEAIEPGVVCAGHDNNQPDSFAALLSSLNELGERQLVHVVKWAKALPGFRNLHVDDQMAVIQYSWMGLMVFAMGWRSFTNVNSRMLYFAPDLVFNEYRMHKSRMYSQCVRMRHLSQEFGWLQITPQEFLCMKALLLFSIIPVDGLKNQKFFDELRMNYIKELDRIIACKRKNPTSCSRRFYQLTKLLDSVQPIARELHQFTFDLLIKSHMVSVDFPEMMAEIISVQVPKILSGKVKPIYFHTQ
Experimental: (§1) Hereinafter, experimental examples to show the effects of the disclosed compounds are described. Unless otherwise described, the following experiments were conducted with conventional materials and methos well known in the an for measuring a similar function.
Experimental Example 2. Anticancer Efficacy Via Degradation of Androgen Receptor

[2] = tested on: androgen-responsive and unresponsive cell; assay: Increase of the autophagy flux in androgen-responsive and unresponsive cell; format: cell-based; settings: FIG. 1; for increase of autophagy at low concentration: 0.01 μM
Experimental: as §1
Experimental Example 1. Increase of the Autophagy Flux in Androgen-Responsive and Unresponsive Cell by AR Inhibitors of the Present Invention

[3] = tested on: AR-V7-expressing 22Rv1 xenograft; assay: Tumor growth in AR-V7-expressing 22Rv1 xenograft model; format: in vivo; settings: SCID mice, intraperitoneally 5 times per week, 20 mg/kg; FIG. 10
Experimental: 22Rv1 cells (4×10^6 cells/animal) were injected subcutaneously into 10-week-old male SCID mice to generate xenograft. The mice bearing tumor were randomly divided into vehicle or AUTOTAC treatment groups (4 or 5 mice per group), Compound B was injected via intraperitoneally 5 times per week at a dose of 20 mg/kg body weight, whereas the vehicle group received an equal volume of PBS containing 5% DMSO and 10% solutol. (FIG. 10)

[4] = target: T1, androgen receptor; assay: Inactivation of AR: transcriptional activity of androgen receptor; format: cell-based; settings: by forming aggregation with p62 in the cytosol; FIG. 3
Experimental: as §1

[5] = tested on: LNCaP xenograft tumors; assay: Growth of LNCaP xenograft tumors in mice; format: in vivo; settings: FIG. 8a to 8d
From the text: Experimental Example 4. […] Inhibition of Tumor Growth

[6] = target: T2, androgen receptor (Homo sapiens, UniProt P10275, T878A); assay: Degradation of androgen receptor in tumor of mice; format: in vivo; settings: LNCaP xenograft tumor; FIG. 8e
T2 construct: from tissue; host or cells: LNCaP xenograft tumour in mice
From the text: 2. Degradation of Androgen Receptor

[7] = tested on: androgen-responsive prostate cancer cell; assay: Cell proliferation / cell cycle of prostate cancer cell; format: cell-based; settings: blocking the cell cycle in G1 phase; FIG. 7
Experimental: as §1
(§2) Experimental Example 3. Compound B Inhibits Proliferation of Androgen-Responsive Prostate Cancer Cell

[8] = tested on: androgen-responsive prostate cancer cell; assay: Colony formation of prostate cancer cell; format: cell-based; settings: FIG. 6
Experimental: as §1, §2

[9] = tested on: AR splice variant 7 (AR-V7); assay: Degradation of AR splice variant 7 in enzalutamide resistant cell; format: cell-based
From the text: (§3) Experimental Example 5. Xtandi-AUTOTAC Degrades AR Splice Variant 7, Predictive Biomarker of Metastatic Castration-Resistant Prostate Cancer Degradation of AR Variant (FIG. 9a to FIG. 9d)

[10] = target: T3, wild type AR (Homo sapiens, UniProt P10275); assay: Degradation of wild type AR in enzalutamide resistant cell; format: cell-based; settings: FIG. 9a
T3 construct: endogenous in cells
T3 sequence (P10275 1-920): T1 sequence (P10275 1-920)
From the text: as §3

[11] = tested on: AR target genes; assay: Down-regulation of AR signaling pathway: expression of AR target genes; format: cell-based; settings: FIG. 4
Experimental: as §1
3. Down-Regulation of AR Signaling Pathway

T2 sequence (P10275 whole entry T878A): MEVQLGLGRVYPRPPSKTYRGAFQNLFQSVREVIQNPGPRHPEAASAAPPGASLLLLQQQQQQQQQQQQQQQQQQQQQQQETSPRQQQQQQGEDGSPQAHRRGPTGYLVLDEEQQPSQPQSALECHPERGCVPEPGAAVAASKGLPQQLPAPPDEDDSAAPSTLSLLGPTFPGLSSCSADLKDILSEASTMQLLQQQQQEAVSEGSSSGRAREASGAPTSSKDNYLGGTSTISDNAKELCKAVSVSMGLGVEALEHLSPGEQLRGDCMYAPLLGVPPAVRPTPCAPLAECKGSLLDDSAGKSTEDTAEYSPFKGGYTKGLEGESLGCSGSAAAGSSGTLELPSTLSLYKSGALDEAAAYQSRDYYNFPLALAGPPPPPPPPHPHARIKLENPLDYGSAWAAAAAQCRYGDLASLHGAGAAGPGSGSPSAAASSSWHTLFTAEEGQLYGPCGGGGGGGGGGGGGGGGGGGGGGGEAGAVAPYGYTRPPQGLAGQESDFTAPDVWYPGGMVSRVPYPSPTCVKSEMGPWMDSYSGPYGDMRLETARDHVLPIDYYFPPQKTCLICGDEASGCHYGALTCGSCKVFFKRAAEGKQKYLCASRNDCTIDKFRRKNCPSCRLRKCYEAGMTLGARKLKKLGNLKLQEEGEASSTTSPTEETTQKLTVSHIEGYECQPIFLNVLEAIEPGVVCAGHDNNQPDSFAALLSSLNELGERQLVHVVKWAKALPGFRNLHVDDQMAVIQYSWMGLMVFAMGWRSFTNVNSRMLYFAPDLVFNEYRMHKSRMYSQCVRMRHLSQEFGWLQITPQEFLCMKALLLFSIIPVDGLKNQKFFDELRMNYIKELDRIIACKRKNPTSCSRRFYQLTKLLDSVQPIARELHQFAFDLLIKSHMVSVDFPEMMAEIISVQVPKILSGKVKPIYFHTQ
T2 sequence (Q13501 whole entry partner): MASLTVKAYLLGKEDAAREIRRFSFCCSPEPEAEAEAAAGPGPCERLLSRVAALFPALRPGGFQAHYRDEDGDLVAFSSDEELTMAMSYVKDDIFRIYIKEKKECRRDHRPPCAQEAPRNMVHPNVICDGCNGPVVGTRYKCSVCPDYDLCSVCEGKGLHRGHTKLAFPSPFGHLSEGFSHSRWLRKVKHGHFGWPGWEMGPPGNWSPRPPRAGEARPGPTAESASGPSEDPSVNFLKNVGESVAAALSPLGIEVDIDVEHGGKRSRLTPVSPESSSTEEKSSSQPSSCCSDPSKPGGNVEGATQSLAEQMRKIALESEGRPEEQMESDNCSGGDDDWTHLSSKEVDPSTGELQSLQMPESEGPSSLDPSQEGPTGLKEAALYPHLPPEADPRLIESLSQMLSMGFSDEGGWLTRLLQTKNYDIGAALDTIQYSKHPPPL

Row | Structure (SMILES) | degradation of androgen receptor through autophagy [1] | increase of autophagy at low concentration [2] | further results
1 | CC1(C)C(=O)N(c2ccc(C#N)c(C(F)(F)F)c2)C(=S)N1c1ccc(C(=O)NCCCCCCOCCCCCNC[C@@H](O)COc2cccc(OCc3ccc(F)cc3)c2)c(F)c1 [Compound G, (R)-4-(3-(4-cyano-3-(trifluoromethyl)phenyl)-5,5-dimethyl-4-oxo-2-thioxoimidazolidin-1-yl)-2-fluoro-N-(6-((5-((3-(3-((4-fluorobenzyl)oxy)phenoxy)-2-hydroxypropyl)amino)pentyl)oxy)hexyl)benzamide] | efficiently degrade androgen receptor | – | –
2 | CC1(C)C(=O)N(c2ccc(C#N)c(C(F)(F)F)c2)C(=S)N1c1ccc(C(=O)NCCOCCOCCOCCOCCNC[C@@H](O)COc2cccc(OCc3ccc(F)cc3)c2)c(F)c1 [Compound F, (R)-4-(3-(4-cyano-3-(trifluoromethyl)phenyl)-5,5-dimethyl-4-oxo-2-thioxoimidazolidin-1-yl)-2-fluoro-N-(18-(3-((4-fluorobenzyl)oxy)phenoxy)-17-hydroxy-3,6,9,12-tetraoxa-15-azaoctadecyl)benzamide] | efficiently degrade androgen receptor | – | –
3 | CC1(C)C(=O)N(c2ccc(C#N)c(C(F)(F)F)c2)C(=S)N1c1ccc(OCCCCCCCC(=O)NCCOCCOCCNCc2cccc(OCc3ccc(F)cc3)c2)cc1 [Compound H, 8-(4-(3-(4-cyano-3-(trifluoromethyl)phenyl)-5,5-dimethyl-4-oxo-2-thioxoimidazolidin-1-yl)phenoxy)-N-(2-(2-(2-((3-((4-fluorobenzyl)oxy)benzyl)amino)ethoxy)ethoxy)ethyl)octanamide] | efficiently degrade androgen receptor | – | –
4 | CC1(C)C(=O)N(c2ccc(C#N)c(C(F)(F)F)c2)C(=S)N1c1ccc(OCCOCCOCCOCCOCCOCCNCc2cccc(OCc3ccc(F)cc3)c2)cc1 [Compound I, 4-(3-(4-((1-(3-((4-fluorobenzyl)oxy)phenyl)-5,8,11,14,17-pentaoxa-2-azanonadecan-19-yl)oxy)phenyl)-4,4-dimethyl-5-oxo-2-thioxoimidazolidin-1-yl)-2-(trifluoromethyl)benzonitrile] | efficiently degrade androgen receptor | – | –
5 | O[C@H](CNCCOCCOCCOCCOCCN1CCN(c2nc(-n3cc(Br)nc3Br)cs2)CC1)COc1ccc(OCc2ccc(F)cc2)c(OCc2ccc(F)cc2)c1 [Compound D, (R)-18-(3,4-bis((4-fluorobenzyl)oxy)phenoxy)-1-(4-(4-(2,4-dibromo-1H-imidazol-1-yl)thiazol-2-yl)piperazin-1-yl)-3,6,9,12-tetraoxa-15-azaoctadecan-17-ol] | efficiently degrade androgen receptor | – | –
6 | CC1(C)C(=O)N(c2ccc(C#N)c(C(F)(F)F)c2)C(=S)N1c1ccc(C(=O)NCCOCCOCCOCCOCCNC[C@@H](O)COc2ccc(OCc3ccc(F)cc3)c(OCc3ccc(F)cc3)c2)c(F)c1 [Compound B, (R)—N-(18-(3,4-bis((4-fluorobenzyl)oxy)phenoxy)-17-hydroxy-3,6,9,12-tetraoxa-15-azaoctadecyl)-4-(3-(4-cyano-3-(trifluoromethyl)phenyl)-5,5-dimethyl-4-oxo-2-thioxoimidazolidin-1-yl)-2-fluorobenzamide] | efficiently degrade androgen receptor | efficiently increase autophagy | increase of autophagy at early time point ([2]; 1 h): efficiently increases autophagy; tumor growth in AR-V7-expressing 22Rv1 xenograft model [3]: Inhibits Tumor Growth; transcriptional activity of androgen receptor [4]: inhibits transcriptional activity of androgen receptor; tumor growth in Xenograft mouse model [5]: efficiently inhibits tumor growth; degradation of androgen receptor in tumor of mice [6]: degrades androgen receptor; cell proliferation / cell cycle [7]: inhibits cell proliferation by blocking the cell cycle in G1 phase; colony formation of prostate cancer cell [8]: prevents colony formation; degradation of AR-V7 by sequestering with wild type AR ([9]; FIG. 9a to 9d): can degrade AR-V7 by sequestering with wild type AR; degradation of AR-V7 ([9]; enzalutamide resistant cell, FIG. 9a): degrades; degradation of wild type AR [10]: degrades; expression of AR target genes [11]: down-regulates expression of AR target genes
7 | CC1(C)C(=O)N(c2ccc(C#N)c(C(F)(F)F)c2)C(=S)N1c1ccc(C(=O)NCCOCCOCCOCCOCCOCCOCCNC[C@@H](O)COc2ccc(OCc3ccc(F)cc3)c(OCc3ccc(F)cc3)c2)c(F)c1 [Compound C, (R)-N-(24-(3,4-bis((4-fluorobenzyl)oxy)phenoxy)-23-hydroxy-3,6,9,12,15,18-hexaoxa-21-azatetracosyl)-4-(3-(4-cyano-3-(trifluoromethyl)phenyl)-5,5-dimethyl-4-oxo-2-thioxoimidazolidin-1-yl)-2-fluorobenzamide] | efficiently degrade androgen receptor | efficiently increase autophagy | –
8 | CC1(C)C(=O)N(c2ccc(C#N)c(C(F)(F)F)c2)C(=S)N1c1ccc(C(=O)NCCOCCOCCNC[C@@H](O)COc2ccc(OCc3ccc(F)cc3)c(OCc3ccc(F)cc3)c2)c(F)c1 [Compound A, (R)—N-(2-(2-(2-((3-(3,4-bis((4-fluorobenzyl)oxy)phenoxy)-2-hydroxypropyl)amino)ethoxy)ethoxy)ethyl)-4-(3-(4-cyano-3-(trifluoromethyl)phenyl)-5,5-dimethyl-4-oxo-2-thioxoimidazolidin-1-yl)-2-fluorobenzamide] | efficiently degrade androgen receptor | efficiently increase autophagy | –
9 | O=C(COCCOCCOCCOCCNC[C@@H](O)COc1ccc(OCc2ccc(F)cc2)c(OCc2ccc(F)cc2)c1)N1CCN(c2nc(-n3cc(Br)nc3Br)cs2)CC1 [Compound E, (R)-18-(3,4-bis((4-fluorobenzyl)oxy)phenoxy)-1-(4-(4-(2,4-dibromo-1H-imidazol-1-yl)thiazol-2-yl)piperazin-1-yl)-17-hydroxy-3,6,9,12-tetraoxa-15-azaoctadecan-1-one] | efficiently degrade androgen receptor | – | –
